Assay results taken from patent publication US7642245B2, “Antibacterial compounds having a (pyrrole carboxamide)-(benzamide)-(imidazole carboxamide) motif” (Oscient Pharmaceuticals Corporation, priority 2002, dated 2010).

Columns and labels:
S. aureus ATCC 13709 = assay: MIC, NCCLS broth microdilution; format: cell-based, Staphylococcus aureus; details: A = S. aureus ATCC 13709 (MSSA)
From the text: (§1) In vitro biological activity data were collected for a variety of microorganisms, including Staphylococcus aureus (ATCC 27660, a methicillin resistant strain (MRSA); ATCC 13709, a methicillin sensitive strain (MSSA)), Enterococcus faecalis (ATCC 29212), Bacillus cereus (ATCC 11778), Streptococcus pneumoniae (ATCC 49619), Candida albicans (ATCC 38247), Escherichia coli (ATCC 25922), and Moraxella (now Branhamella) catarrhalis (ATCC 25238).
(§2) The minimal inhibition concentration (MIC) of these compounds was determined using the National Committee for Clinical Laboratory Standards (NCCLS) broth microdilution assay in microtiter plates, as set forth in: (1) the guidelines of the National Committee for Clinical Laboratory Standards (NCCLS) Document M7-A4 (NCCLS, 1997); (2) the guidelines of the National Committee for Clinical Laboratory Standards (NCCLS) Document M11-A4 (NCCLS, 1997); and (3) the guidelines and reference method of the National Committee for Clinical Laboratory Standards (NCCLS) Document M27-T (NCCLS, 1995). For antifungal assays, the method recommended in Murray, P R., 1995 Manual of Clinical Microbiology (ASM Press, Washington, DC.), was employed.

S. aureus ATCC 27660 = assay: MIC, NCCLS broth microdilution; format: cell-based, Staphylococcus aureus; details: B = S. aureus ATCC 27660 (MRSA)
From the text: as §1, §2

[1] = test system: M. catarrhalis (ATCC 25238); assay: MIC, NCCLS broth microdilution; format: cell-based, Moraxella (now Branhamella) catarrhalis; details: H = M. catarrhalis (ATCC 25238)
From the text: as §1, §2

S. pneumoniae ATCC 49619 = assay: MIC, NCCLS broth microdilution; format: cell-based, Streptococcus pneumoniae; details: E = S. pneumoniae ATCC 49619
From the text: as §1, §2

C. albicans ATCC 38247 = assay: MIC, antifungal assay; format: cell-based, Candida albicans; details: F = C. albicans ATCC 38247
From the text: as §1, §2

E. faecalis ATCC 29212 = assay: MIC, NCCLS broth microdilution; format: cell-based, Enterococcus faecalis; details: C = E. faecalis ATCC 29212
From the text: as §1, §2

B. cereus ATCC 11778 = assay: MIC, NCCLS broth microdilution; format: cell-based, Bacillus cereus; details: D = B. cereus ATCC 11778
From the text: as §1, §2

E. coli ATCC 25922 = assay: MIC, NCCLS broth microdilution; format: cell-based, Escherichia coli; details: G = E. coli ATCC 25922
From the text: as §1, §2

SMILES	Minimum Inhibitory Concentration (MIC) (S. aureus ATCC 13709)	Minimum Inhibitory Concentration (MIC) (S. aureus ATCC 27660)	Minimum Inhibitory Concentration (MIC) [1]	Minimum Inhibitory Concentration (MIC) (S. pneumoniae ATCC 49619)	Minimum Inhibitory Concentration (MIC) (C. albicans ATCC 38247)	Minimum Inhibitory Concentration (MIC) (E. faecalis ATCC 29212)	Minimum Inhibitory Concentration (MIC) (B. cereus ATCC 11778)	Minimum Inhibitory Concentration (MIC) (E. coli ATCC 25922)
COCCNCCNC(=O)c1nc(NC(=O)c2ccc(NC(=O)c3cc(NC(=O)c4cc5ccccc5cn4)cn3C)cc2)cn1C [Compound A-28]	+++ (MIC ≦ 4 μg/mL)	+++ (MIC ≦ 4 μg/mL)	+++ (MIC ≦ 4 μg/mL)	+++ (MIC ≦ 4 μg/mL)	+ (12 ≦ MIC ≦ 32 μg/mL)	+++ (MIC ≦ 4 μg/mL)	+++ (MIC ≦ 4 μg/mL)	++ (4 < MIC < 12 μg/mL)
Cn1cc(NC(=O)c2cc3ccccc3cn2)cc1C(=O)Nc1ccc(C(=O)Nc2cn(C)c(C(=O)NCCN3CCN(C(=O)C4OC(O)C(O)C(O)C4O)CC3)n2)cc1 (centres unmarked) [Compound A-75]	+++ (MIC ≦ 4 μg/mL)	+++ (MIC ≦ 4 μg/mL)	>32 µg/mL	+++ (MIC ≦ 4 μg/mL)	>32 µg/mL	+++ (MIC ≦ 4 μg/mL)	+++ (MIC ≦ 4 μg/mL)	>32 µg/mL
Cn1cc(NC(=O)c2cc3ccccc3cn2)cc1C(=O)Nc1ccc(C(=O)Nc2cn(C)c(C(=O)NCCN3CCC(O)CC3)n2)cc1 [Compound A-19]	+++ (MIC ≦ 4 μg/mL)	+++ (MIC ≦ 4 μg/mL)	+++ (MIC ≦ 4 μg/mL)	+++ (MIC ≦ 4 μg/mL)	>32 µg/mL	+++ (MIC ≦ 4 μg/mL)	+++ (MIC ≦ 4 μg/mL)	+ (12 ≦ MIC ≦ 32 μg/mL)
Cn1cc(NC(=O)c2cc3ccccc3cn2)cc1C(=O)Nc1ccc(C(=O)Nc2cn(C)c(C(=O)NCCN3CCNCC3)n2)cc1 [Compound A-47]	+++ (MIC ≦ 4 μg/mL)	+++ (MIC ≦ 4 μg/mL)	+++ (MIC ≦ 4 μg/mL)	+++ (MIC ≦ 4 μg/mL)	+ (12 ≦ MIC ≦ 32 μg/mL)	+++ (MIC ≦ 4 μg/mL)	+++ (MIC ≦ 4 μg/mL)	>32 µg/mL
Cn1cc(NC(=O)c2cc3ccccc3cn2)cc1C(=O)Nc1ccc(C(=O)Nc2cn(C)c(C(=O)NCCN3CCC(OC(=O)CN)CC3)n2)cc1 [Compound A-67]	+++ (MIC ≦ 4 μg/mL)	+++ (MIC ≦ 4 μg/mL)	+++ (MIC ≦ 4 μg/mL)	+++ (MIC ≦ 4 μg/mL)	++ (4 < MIC < 12 μg/mL)	+++ (MIC ≦ 4 μg/mL)	+++ (MIC ≦ 4 μg/mL)	+ (12 ≦ MIC ≦ 32 μg/mL)
Cn1cc(NC(=O)c2sccc2Cl)cc1C(=O)Nc1ccc(C(=O)Nc2cn(C)c(C(=O)NCCN3CCC(O)CC3)n2)cc1 [Compound A-1]	+++ (MIC ≦ 4 μg/mL)	+++ (MIC ≦ 4 μg/mL)	+ (12 ≦ MIC ≦ 32 μg/mL)	+++ (MIC ≦ 4 μg/mL)	>32 µg/mL	+++ (MIC ≦ 4 μg/mL)	+++ (MIC ≦ 4 μg/mL)	>32 µg/mL
Cn1cc(NC(=O)c2cc3ccccc3cn2)cc1C(=O)Nc1ccc(C(=O)Nc2cn(C)c(C(=O)NCCN3CCN(CCOC(=O)CN)CC3)n2)cc1 [Compound A-62]	+++ (MIC ≦ 4 μg/mL)	+++ (MIC ≦ 4 μg/mL)	+++ (MIC ≦ 4 μg/mL)	+++ (MIC ≦ 4 μg/mL)	>32 µg/mL	+++ (MIC ≦ 4 μg/mL)	+++ (MIC ≦ 4 μg/mL)	>32 µg/mL
